Measured values taken from US20160038438A1, “COMBINATION OF NORDIHYDROGUAIARETIC ACID AND AN AMINOGLYCOSIDE” (HELPERBY THERAPEUTICS LIMITED, priority 2013, published 2016).

Assays:
[1] = test system: log phase methicillin resistant Staphylococcus aureus clinical strain; assay: Time kill, HT013006 with gentamycin, log phase MRSA clinical strain; type: cell-based
[2] = test system: log phase Staphylococcus aureus Oxford strain; assay: Time kill, HT013006 with neomycin, log phase S. aureus Oxford strain; type: cell-based
Procedure: Using the methods described in Example 2, HT013006 was tested in combination with neomycin against log phase Staphylococcus aureus Oxford strain over a time period of 24 hours.

log phase S. aureus [3] = assay: Chequerboard method, HT013006 (NDGA) with gentamycin, log phase S. aureus; type: cell-based, Staphylococcus aureus; settings: for MIC before combination: drug alone, log phase S. aureus
Procedure: Log phase growth of S. aureus was carried out as described in the art. HT013006 in combination with gentamycin against log phase S. aureus using chequerboard method The effects of combination were examined by calculating the fractional inhibitory concentration index (FICI) of each combination, as follows: (MIC of drug A, tested in combination)/(MIC of drug A, tested alone)+(MIC of drug B, tested in combination)/(MIC of drug B, tested alone). The interaction of the combination was defined as showing synergy if the FICI was ≦0.5, no interaction if the FICI was >0.5 but <4.0 and antagonism if the FICI was >4.0.

yeast pathogens = settings: against yeast pathogens; cited from earlier work
[4] = test system: log phase Staphylococcus aureus gentamycin resistant clinical strain; assay: Time kill, HT013006 with gentamycin, gentamycin resistant clinical strain; type: cell-based
Procedure: • 1. HT013006 at 16 and 8 μg/ml had no activities against log phase MRSA. • 2. […] The minimal concentration of HT013006 was 2 μg/ml when combined with 0.5 and 0.25 μg/ml of gentamycin. • (b) log phase phase Staphylococcus aureus gentamycin resistant clinical strain by time kill (340)

log phase S. aureus [5] = assay: Time kill curve, HT013006 alone and with gentamycin, log phase S. aureus; type: cell-based, Staphylococcus aureus
Text: HT013006 alone and in combination with gentamycin against log phase S. aureus using time kill curve.

enterobacteria = settings: cited from earlier work
[6] = HT013006 alone at 16, 8, 4 and 2 μg/ml

CC(Cc1ccc(O)c(O)c1)C(C)Cc1ccc(O)c(O)c1 (stereo not shown) [HT013006, nordihydroguaiaretic acid]
activity in time kill ([1]; HT013006 alone at 16 and 8 μg/ml, log phase MRSA): no activities | minimal concentration of HT013006 in combination ([1]; combined with 0.5 and 0.25 μg/ml of gentamycin): 2 µg/mL | activity in time kill ([2]; HT013006 alone at 16, 8, 4 and 2 μg/ml, 24 hours): no activities | minimal concentration of HT013006 which showed maximal enhanced effect ([2]; in combination with neomycin): 8 µg/mL | MIC of HT013006 in combination (log phase S. aureus [3]; combined with 0.25 μg/ml of gentamycin): 1 µg/mL | MIC before combination (log phase S. aureus [3]): 64 µg/mL | effect on amphotericin B activity (yeast pathogens): enhancing the effect of amphotericin B | activity in time kill [4, 6]: no activities | minimal concentration of HT013006 which showed enhanced activities ([4]; combined with 4 and 2 μg/ml of gentamycin): 2 µg/mL | activity in time kill (log phase S. aureus [5]; [6]): no activities | activity in time kill (log phase S. aureus [5]; HT013006 alone at 16 and 8 μg/ml): no activities

gentamycin [reference compound]
MIC of gentamycin in combination (log phase S. aureus [3]; combined with 16 μg/ml of HT013006): 0.0078 µg/mL | MIC before combination (log phase S. aureus [3]): 0.5 µg/mL | activity in time kill ([4]; gentamycin at 4, 2, 1 and 0.5 ug/ml, strain 17): no activities | activity in time kill (log phase S. aureus [5]; gentamycin 0.0625 μg/ml): no activity | activity in time kill (log phase S. aureus [5]; gentamycin 0.125 μg/ml): inhibition over 8 hours of treatment, then regrowth was seen | regrowth (log phase S. aureus [5]; gentamycin 0.25 μg/ml): regrowth was seen after 4 hours | kill (log phase S. aureus [5]; gentamycin 0.25 μg/ml, at 4 hours of incubation): 3 log | regrowth (log phase S. aureus [5]; gentamycin 0.5 μg/ml): regrowth was seen after 2 hours | kill (log phase S. aureus [5]; gentamycin 0.5 μg/ml, at 2 hours of incubation): 3.5 log

Cc1cn([C@H]2C[C@H](N=[N+]=[N-])[C@@H](CO)O2)c(=O)[nH]c1=O [AZT, zidovudine]
interaction with the aminoglycosides amikacin and gentamycin (enterobacteria; against enterobacteria): additive or synergistic activity | effect on bacteria (enterobacteria; some enterobacteria): bactericidal effect
